Measured values taken from US5863889A, “ICAM-1/LFA-1 short-chain peptides and method of using same” (The University of Kansas, priority 1996, dated 1999).

Test system: Molt3 cells
Assay: Homotypic adhesion assay (MDHC-induced clumping of T-cells)
Format: cell-based, human
Design: key to Homotypic Adhesion Amount: Any sample having a score of "+++" or "++++" is considered to have a significant ability to modulate T-cell binding interaction; Any sample having a score of "+++" or "++++" is considered to have a significant ability to modulate T-cell binding interaction
Settings: 10 μM MDHC
Procedure: As before, the T-cells were Molt3 cells prepared in RPMI 1640 growth medium according to Example 2. An approximate 7 ml aliquot of the growth medium was centrifuged (Jouan Model GT422 at 1400 rpm for 6.5 minutes), and the supernatant fluid was decanted. The pellet was resuspended in the supernatant fluid at titer of about 1×10^6 cells/ml, with the excess supernatant fluid being retained for future resuspension of the peptides.
A 228 nmol quantity of the LJCRF-1 (Sequence ID No. 6) peptide described in Table 1 was diluted with the supernatant fluid to a 500 μl final volume, and filtered in microcentrifuge filter tubes (0.22 micron filter; 3500 rpm for 6 minutes). Serial dilution of the filtered peptide with supernatant fluid was conducted to yield five 125 μl peptide solutions to give respective concentrations of about 115 μM, 230 μM, 460 μM, 910 μM, and 1.82 mM. At each concentration, a 125 μl portion of the cell suspension was pipetted into each 125 μl portion of the peptide solutions to yield combined samples having a 250 μl volume. The 250 μl samples were seeded into individual wells in a 48-well tissue culture grade plate (from Costar of Cambridge, Md.) and incubated at 37° C. for 30 minutes. Each sample received 5 μl of 2,5-methyl dihydroxy cinnamate ("MDHC") for a 10 μM final concentration, and was subsequently incubated for about 10 hours at 37° C. MDHC induces intercellular clumping of human T-cells (Tibbetts, Butler, and Benedict, submitted) by activating the LFA/ICAM binding interaction between respective cells.
Pictures were taken of five random fields per sample using an Olympus photomicroscope having a 0.8 mm field at 400×magnification, and a 3.2 mm field of view at 100×magnification. The amount of clumping observed was quantified by determining the mean number of clumps per field ± a standard error.
FIGS. 5, 6, and 7 replicate photographs taken from exemplary peptide assays. FIG. 5 is a photograph of the control sample having no peptides and no MDHC added, from which essentially no clumping of cells is observed. […] Any sample having a score of "+++" or "++++" is considered to have a significant ability to modulate T-cell binding interaction. This is similar to results obtained by incubating similarly treated cells with antibody against either LFA or ICAM.
The homotypic adhesion assay assesses the actual ability of a candidate peptide to modulate the ability of T-cells to adhere with one another.

SC-3-111: ICAM-1 based short-chain peptide, Sequence ID No. 10 (QTSVSPSKVI)
Homotypic Adhesion Effect (peptide 230 μM): Block | Homotypic Adhesion Effect (peptide 460 μM): Block | Homotypic Adhesion Amount (peptide 910 μM): ++++ | Homotypic Adhesion Effect (peptide 910 μM): Block | Homotypic Adhesion Amount (peptide 1820 μM): +++ | Homotypic Adhesion Effect (peptide 1820 μM): Block
